Our source for the AC50 values is PubChem BioAssay AID624254 (Broad Institute, 2012).

Calls of active or inactive are those of the source. No rule for the calls is given here.

The assay addresses V. cholerae BH1651 luxOD47E, luciferase light induction, 6 h. Briefly: Luciferase light induction in v cholerae bh1651, agonist dose response, confirmatory (AID 624254).
For orientation: AC50 means the concentration giving half of the maximal activity seen. With `CCn1cc(C(=O)NC2CCCCC2C)c(=O)c2ccc(C)nc21` (stereo not drawn), the AC50 was 1.08 µM.

On to `CCOC(=O)c1cnc(-n2nc(C)cc2C)nc1N(C)C`, for which the AC50 is 0.0676 µM. The value for `O=C(NCCC(=O)N1CCCCC1)c1ccc(Br)cc1` was 25 µM; that for `COc1ccc(Cl)cc1NC(=O)COC(=O)c1ccc(Br)o1` was 8.88 µM; that for `CCc1cc(C(=O)c2ccccc2OC)c(N)s1` was 0.802 µM. The value for `CCOc1ccc(CCNC(=O)COC(=O)Cc2ccc(F)cc2)cc1OCC` was 0.0953 µM. The value for `CC(=O)c1cccc(NC(=O)CSc2nc(=O)n(CCCN3CCOCC3)c3c2CCC3)c1` was 0.18 µM; that for `CCn1nnnc1NCc1ccc(SC)cc1` was 0.188 µM. Consider `COC(=O)C(C)N(c1ccc(C)cc1)S(=O)(=O)c1c(C)[nH]c(=O)[nH]c1=O` (stereo not drawn), for which the AC50 is > 50 µM (inactive).

`CCCS(=O)(=O)N1CCCC(C(=O)N2CCN(c3ccccc3)CC2)C1` (stereo not drawn): the AC50 is 0.0413 µM. As for `COc1ccc(NC(=O)Nc2cccc3c2O[C@H](CN(C)S(=O)(=O)c2ccccc2)[C@@H](C)CN([C@H](C)CO)C3=O)cc1`, the AC50 was 13.2 µM. As to `CCn1nc(NC(=O)c2ccco2)c2cc3ccccc3nc21`, the AC50 is 2.36 µM. The value for `CCOC(=O)c1cnc2nc(C(F)(F)F)[nH]n2c1=O` was 15.7 µM; that for `Cc1nc2ncnn2c(C)c1Cc1c(Cl)cccc1Cl` was 1.22 µM; that for `O=C(NCc1ccccn1)c1ccc(CS(=O)(=O)Cc2ccc(Cl)cc2)o1` was 20.5 µM. The value for `CCOc1ccc(CCNC(=O)C2CCN(c3ccc(N4CCOCC4)nn3)CC2)cc1OCC` was 0.0445 µM; that for `CCC(C)n1cnc2c(=O)oc3ccccc3c21` (stereo not drawn) was 0.149 µM; that for `O=C(c1ccc(C(=O)N2CCOCC2)nc1)N1CCOCC1` was 0.183 µM. The value for `C=C(C)COc1ccc(-c2ncncc2Oc2ccc(OC)cc2)c(O)c1` was 0.632 µM; that for `COc1ccc(N2CC(C(=O)Nc3cc(C(F)(F)F)ccc3N3CCCC3)CC2=O)c(OC)c1` (stereo not drawn) was 1.22 µM; that for `CCC(Oc1ccccc1)C(=O)Nc1ccc(-c2nnc(-c3ccco3)o2)cc1` (stereo not drawn) was > 50 µM (inactive). Regarding `O=C(NC1CCCCC1)C(=O)c1c[nH]c2ccccc12`, the AC50 is below 0.0235 µM. For the compound `Cc1cc(C)cc(NC(=O)Cn2ncn3c(cc4ccccc43)c2=O)c1`, the AC50 was 7.05 µM.

For the compound `CCOc1ccc(CNC(=O)c2ccco2)cc1`, the AC50 was 35.6 µM. The value for `Cc1sc(N)nc1-c1ccc(Oc2ccccc2)cc1` was 0.167 µM; that for `Cc1ccc(-n2nnnc2SCC(=O)NCC2CCCO2)cc1C` (stereo not drawn) was 0.0336 µM; that for `Cc1cccc(-c2cc3nc4c(c(N5CCC6(CC5)OCCO6)n3n2)CCCC4)c1` was > 50 µM (inactive). The value for `Cc1ccc(C)c(S(=O)(=O)N2CCN(C(=O)c3n[nH]c(=O)c4ccccc34)CC2)c1` was 2.96 µM; that for `CCOC(=O)C1=C(C)N=C2SCCC(=O)N2C1c1cc(Br)ccc1OC` (stereo not drawn) was 0.0354 µM; that for `CC(=O)Nc1ccc(N2CCCC2)cc1` was > 50 µM (inactive). On to `COc1ccc(NC(=O)CCS(=O)(=O)c2ccc3c(c2)CCCN3C(C)=O)cc1Cl`, for which the AC50 is 0.113 µM. As for `COCc1[nH]nc2c1C1(CCC3(CC1)OCCO3)C(C#N)=C(N)O2`, the AC50 is > 50 µM (inactive). In the case of `COc1cc(NC(=O)Nc2cccc(Cl)c2)c(OC)cc1NC(=O)CN1CCCCC1`, the AC50 was 0.522 µM. The figure for `O=C(COC(=O)/C=C/c1ccccc1)NC1CCCC1` is > 50 µM (inactive); for `Cn1c(Cn2cnc(Cl)c2Cl)nc2ccccc21` it is 0.21 µM. The value for `CC1CCCCC1NC(=O)COC(=O)c1ccccc1NC(=O)c1ccco1` (stereo not drawn) was 20 µM; that for `Cc1cc2oc(=O)cc(-c3ccccc3)c2c(C)c1-c1ccc(C#N)cc1` was 3.21 µM; that for `O=C(Nc1nnc(-c2ccc3c(c2)OCCO3)o1)C1CCCCC1` was below 0.0235 µM. The value for `C[C@H](CO)N1C[C@H](C)[C@@H](CN(C)S(=O)(=O)c2ccccc2)Oc2c(NC(=O)Nc3ccc(F)cc3)cccc2C1=O` was 1.91 µM; that for `Cc1noc(C)c1S(=O)(=O)Nc1ccc2c(c1)C(=O)N([C@H](C)CO)C[C@H](C)[C@@H](CN(C)Cc1ccc(C(=O)O)cc1)O2` was 18.8 µM. As to `CC(NC(=O)CN1CCN(c2ccccc2F)CC1)c1ccccc1` (stereo not drawn), the AC50 was > 50 µM (inactive). The value for `O=C(CN1CCN(c2ccc(F)cc2)CC1)Nc1cc(C(F)(F)F)ccc1Cl` was > 50 µM (inactive). The figure for `CCCCCCCCOC(=O)C(NC(=O)CCC(=O)Nc1ccc(S(N)(=O)=O)cc1)C(O)c1ccccc1` (stereo not drawn) is > 50 µM (inactive).

With `O=C(Nc1nnc(C(F)(F)F)s1)C1COc2ccccc2O1` (stereo not drawn), the AC50 is 13.7 µM. As to `Cc1ccc2cc3c(NC(=O)c4ccco4)nn(C)c3nc2c1`, the AC50 was below 0.0235 µM.

`COc1cc(NC(=O)C2=C(C)OCCS2)c(Cl)cc1C(=O)NCCN(C)C`: the AC50 was 0.463 µM. The value for `COc1ccc(CNc2nnnn2C)cc1` was 3.51 µM; that for `Cc1ccc(Cn2c(SCC(C)C)nc3c2c(=O)[nH]c(=O)n3C)cc1` was 0.166 µM. The figure for `CC(=O)N1CCN(C(=O)COc2ccc(Br)cc2)CC1` is > 50 µM (inactive); for `C[C@H](CO)N1C[C@H](C)[C@@H](CN(C)S(=O)(=O)c2ccccc2)Oc2c(NC(=O)Nc3ccccc3)cccc2C1=O` it is 6.48 µM; for `C=Cn1c(C(=O)O)ccc1-c1ccc(OC)cc1` it is below 0.38 µM. The figure for `COc1ccc(C)c2sc(N3CCCC3)nc12` is 1.52 µM; for `COc1ccc(-c2noc(CCC(=O)N3CCN(c4cccc(C(F)(F)F)c4)CC3)n2)cc1` it is 0.685 µM. Turning to `Cc1ccc2nc(NCCc3ccccc3)c3nncn3c2c1`, the AC50 is 0.0681 µM.

Consider `CCC(=O)N(CC)c1nc(-c2cc(OC)ccc2OC)cs1`, for which the AC50 is 0.162 µM. As for `O=[N+]([O-])c1ccc(N(CCO)CCO)c2c1no[n+]2[O-]`, the AC50 was 1.2 µM.

As to `O=C(NCc1ccco1)C1CCCN1S(=O)(=O)c1ccc2ccccc2c1` (stereo not drawn), the AC50 is > 50 µM (inactive).

With `CC(C)COC(=O)CNc1n[nH]c(=S)[nH]c1=O`, the AC50 is below 0.0235 µM. In the case of `CC(C)c1ccc(CNc2nnnn2C)cc1`, the AC50 was 0.101 µM. The figure for `COc1ccc(OCCOC(=O)CCS(=O)(=O)c2ccc(C)cc2)cc1` is 0.208 µM; for `Cc1cccc(NC(=O)c2c(O)c3ccccc3n(C)c2=O)c1` it is > 50 µM (inactive); for `CC(C)(C)Cc1nc(-c2ccccn2)no1` it is > 50 µM (inactive).

For `CC(C)Cn1c(CN2CCN(C)C(CCO)C2)nc2ccccc21` (stereo not drawn), the AC50 is > 50 µM (inactive). The value for `CSc1ccc(C#N)cc1NC(=O)c1ccc(Cl)cc1Cl` was > 50 µM (inactive). The value for `O=c1cc(CSc2ccccn2)c2ccccc2[nH]1` was 0.615 µM; that for `Cc1cc(Oc2ccc(C#N)cc2)nc(N2CCOCC2)n1` was 0.208 µM. Take `C[C@H](CO)N1C[C@H](C)[C@@H](CN(C)S(=O)(=O)c2cccs2)Oc2c(NC(=O)Nc3ccc4c(c3)OCO4)cccc2C1=O`: the AC50 was 1.18 µM.

Regarding `COC(=O)c1ccccc1NC(=O)Cn1cc2c(n1)CCC(C)C2` (stereo not drawn), the AC50 is 1.48 µM. The figure for `COc1ccc(OC)c(S(=O)(=O)N2CCC(C(=O)N3CCc4ccccc4C3)CC2)c1` is 0.191 µM. Consider `Cc1ccc(C)c(-n2c(Cc3cccs3)n[nH]c2=S)c1`, for which the AC50 is below 0.0235 µM.

With `CCCCn1nnnc1NCc1ccc(N2CCCC2)cc1`, the concentration at half-maximal activity (AC50) is 38.7 µM. Consider `COc1ccc(CNC(=O)c2cc(-n3cnnc3)ccc2Cl)cc1`, for which the AC50 was 4.23 µM.

Turning to `C=CCn1c(NCc2ccccc2)nc2ccccc21`, the half-maximal activity concentration (AC50) was 11.7 µM. The value for `CCCCCc1c(C)nc(N2CCc3ccccc3C2)[nH]c1=O` was 0.295 µM; that for `CCc1ccc(NS(=O)(=O)c2cccs2)cc1` was 0.212 µM; that for `O=C(Nc1nccs1)C(NS(=O)(=O)c1ccc(Br)s1)c1ccccc1` (stereo not drawn) was 15.8 µM. The value for `CC(C)n1nnnc1SCC(=O)c1ccc2c(c1)OCCO2` was 0.845 µM; that for `Cc1cc(=O)[nH]c(CN2CCC(c3ccccc3)CC2)n1` was 0.296 µM. The value for `COc1ccc(Cl)cc1S(=O)(=O)NC(C)C(=O)NCCCn1ccnc1` (stereo not drawn) was 0.18 µM; that for `CSc1nc(C)cc(OCC(=O)N2CCOCC2)n1` was 0.113 µM; that for `O=C(CNC(=O)c1cccc(S(=O)(=O)N2CCc3ccccc32)c1)Nc1ccc(F)c(F)c1F` was 0.516 µM. With `COc1ccc(S(=O)(=O)N2CCN(c3cnccn3)CC2)cc1`, the concentration at half-maximal activity (AC50) was 2.58 µM.

Turning to `Cc1ccc(C(=O)OCC(=O)NCC(F)(F)F)cc1C`, the AC50 was 2.41 µM. The value for `CCC(NC(=O)Nc1nccs1)(C(F)(F)F)C(F)(F)F` was 0.734 µM. As for `C[C@H](CO)N1C[C@H](C)[C@@H](CN(C)S(=O)(=O)c2ccccc2)Oc2c(NC(=O)Nc3ccc4c(c3)OCO4)cccc2C1=O`, the AC50 is 1.8 µM. `Cn1c(C(=O)NC2CCCCC2)cc2c(=O)n(C)c3ccccc3c21`: the AC50 is 0.0273 µM.

For the compound `CCOCCCN1CC(C(=O)NCCc2ccc(C)cc2)CC1=O` (stereo not drawn), the AC50 is 0.185 µM. Consider `O=C(O)c1cccc(Nc2ncnc3c2cnn3-c2ccccc2)c1`, for which the AC50 was > 50 µM (inactive). The value for `Cc1noc(C)c1NC(=O)Nc1cccc2c1O[C@@H](CN(C)S(=O)(=O)c1cccs1)[C@H](C)CN([C@H](C)CO)C2=O` was 11.2 µM; that for `CC(C)C(NC(=O)c1ccc(S(=O)(=O)N2CCOCC2)cc1)c1nc2ccccc2[nH]1` (stereo not drawn) was 15.3 µM; that for `Cc1ccc(N2C(=O)C(CN(C)C)C2c2ccccc2)cc1` (stereo not drawn) was 0.417 µM.

For the compound `CCCS(=O)(=O)N1CCC(C(=O)N2CCN(C(=O)OCC)CC2)CC1`, the AC50 is > 50 µM (inactive). As for `O=[N+]([O-])c1ccc(N2CCOCC2)c2c1no[n+]2[O-]`, the AC50 was 1.74 µM.

For the compound `O=C(c1cc2cc(Cl)ccc2oc1=O)N1CCOCC1`, the AC50 was 0.0678 µM.

`CCC(CC)c1nnc(NC(=O)COc2ccc3c(C)cc(=O)oc3c2)s1`: the AC50 is 0.0998 µM. The figure for `CCOC(=O)CSc1nc(N)c(C#N)c(-c2cccs2)c1C#N` is 11.7 µM; for `O=C(CSc1nnc2ccccn12)c1ccc2c(c1)OCCO2` it is 17 µM; for `COc1ccc(OCCOC(=O)c2cccs2)cc1` it is 40.3 µM.
